Experiments:
calcineurin = experiment: Standard test for calcineurin activity; format: biochemical; conditions: standard tests
FK binding protein = experiment: Standard test for FK binding protein binding activity; conditions: standard tests
[1] = tested on: human monocytic cell line THP1; experiment: Cytotoxicity, MTT read-out; format: cell-based
Protocol: Cytotoxicity is determined using the human monocytic cell line THP1 (5×10^4 cells/well) which are incubated in the presence of IFNgamma (100 U/ml) and LPS (5 microgram/ml) plus test compound (up to 10 micromolar) for 24 to 72 h at 37° C. Living cells are quantified using the colourimetric read-out MTT which measures mitochondrial dehydrogenase enzymatic activity in living cells (Mossman 1983). Macrolides of the invention, e.g. compounds of formula IX and their pharmaceutically acceptable salts, e.g. Sanglifehrins A, B, C and D, have IC50 of about 1000-5000 nM after 24 h incubation in this assay. (Mossman T. J. (1983), Rapid calorimetric assay for cellular growth and survival: application to proliferation and cytotoxic assays, J. Imm. Methods, 65, 55-63).

Sanglifehrin B was tested, and the “inhibition of calcineurin activity” value (calcineurin) was “do not inhibit calcineurin activity”, the “FK binding protein binding activity” value (FK binding protein) was “do not have FK binding protein binding activity” and the IC50 [1] was 1000 to 5000 nM.

In the case of Sanglifehrin A, the “inhibition of calcineurin activity” value (calcineurin) is reported as “do not inhibit calcineurin activity” and the “FK binding protein binding activity” value (FK binding protein) is reported as “do not have FK binding protein binding activity”.
